Where a name gives a salt, the structure may show the parent alone.
Assays:
[1] = tested on: Pseudomonas aeruginosa-derived endotoxin-induced keratitis; assay: Effect on endotoxin-induced keratitis (rabbit keratitis model, slit lamp scoring); type: in vivo
Experimental: (§1) The effect of Compound A when given as eye drops was investigated in a rabbit keratitis model using an endotoxin derived from Pseudomonas aeruginosa detected frequently in an ophthalmic infection as well as in a rabbit corneal alkaline erosion model.
(§2) Male Japanese albino rabbits each weighing about 2 to 2.5 kg purchased from FUKUZAKI rabbit-raising association were used. Each animal was maintained at a temperature of 24±4° C. and a humidity of 55±15%.
(§3) Compound A was given as a 1.0% Compound A eye drop formulation prepared by suspending Compound A in a formulation base (0.1% NaH2PO4, 0.1% polysorbate 80 and 0.9% NaCl, pH 5.0). As a positive control, a 0.1% betamethasone eye drop formulation (Rinderon™ solution, Sionogi) was used. In a control group, the formulation base was given.
16 Male Japanese albino rabbits each weighing 2 to 2.5 kg were used. The rabbits were divided into four groups each having 4 animals, which were anesthetized systemically by an intramuscular administration each of 1 ml/kg of an equal volume mixture of 5% ketamine hydrochloride and 2% xylazine hydrochloride. Each 10 μl of a 1% solution of Pseudomonas aeruginosa-derived endotoxin in physiological saline was infused into each corneal stroma of a rabbit. An anterior part of an eye was observed using a slit lamp every 5 days over a period from the day after the endotoxin infusion through the 30th day, and examined for the corneal opacity, the corneal ulcer and the vascularization, which were scored in accordance with the criteria shown in Table 1. Each test substance was started to be instilled immediately after the endotoxin infusion, and then given 4 times a day in the volume of 20 μl every 2 hours.
(§4) Rabbit Keratitis Scoring Criteria
(§5) Corneal opacity^remarks 1)
(§6) * Vascularization^remarks 1)
(§7) 2: ⅔ or more of corneal circumference Remarks 1) Each as score A x score B

[2] = tested on: alkaline erosive keratitis; assay: Effects on alkaline erosive keratitis (rabbit corneal alkaline erosion model, slit lamp scoring); type: in vivo
Experimental: as §1, §2, §3
16 Male Japanese albino rabbits each weighing 2 to 2.5 kg were used. The rabbits were divided into four groups each having 4 animals, which were anesthetized systemically by an intramuscular administration each of 1 ml/kg of an equal volume mixture of 5% ketamine hydrochloride and 2% xylazine hydrochloride and also locally by an instillation of oxybuprocaine hydrochloride. A filter paper whose diameter was 10 mm and which had been immersed in 2N NaOH was brought into contact with the center of the right cornea of a rabbit for 1 minute to establish an alkaline erosion, and then the eye was rinsed immediately with 10 mL or more of physiological saline. The depth of the corneal ulcer and the vascularization were observed using a slit lamp every 5 days over a period from 5 days after the alkaline erosion through the 30th day, and scored in accordance with the criteria shown in Table 1. Each test substance was started to be instilled immediately after the alkaline erosion, and then given 4 times a day in the volume of 20 μl every 2 hours.
as §4, §5, §6, §7

[3] = tested on: Pseudomonas aeruginosa strain No. ho-134 corneal ulcer; assay: Effects on pyocyanic corneal ulcer (inoculation of Pseudomonas aeruginosa into corneal stroma, corneal ulcer score); type: in vivo, rabbit; settings: 50 μl four times a day
Experimental: Male Japanese albino rabbits each weighing about 2 kg purchased from KITAYAMA LABE S CO., LTD. were used. Each animal was maintained at a temperature of 23±3° C. and a humidity of 55±10%.
Compound A was given as a 1.0% Compound A eye drop formulation prepared by suspending Compound A in a formulation base (0.1% sodium acetate, 0.1% polysorbate 80 and 0.9% NaCl, pH 5.0). A 0.3% lomefloxacin (LFLX) hydrochloride was used as an. is antibacterial agent, and physiological saline *was used as a control.
After instilling 0.4% oxybuprocaine hydrochloride for a local anesthesia, a nictitating membrane was excised.
A causative microorganism used was a clinical isolate Pseudomonas aeruginosa strain No. ho-134. A rabbit was anesthetized systemically with 5% ketamine hydrochloride and 2% xylazine hydrochloride (equal volume mixture), and then inoculated by an infusion of 30 μl of a 3.9×10^4 CFU/ml cell suspension (1.17×10^3 CFU/cornea) using a 100 μl microsyringe fitted with a 30G needle into one corneal stroma of a rabbit.
An animal which had received an infusion of the cell suspension into the corneal stroma and whose inoculation was surely successful was grouped into one of [1] physiological saline instillation group (control, n=6) and [2]1.0% Compound A instillation group (Compound A group, n=6) as groups whose therapy was started immediately after the inoculation, and [3]1.0% Compound A instillation group (late Compound A group, n=5), [4]0.3% LFLX instillation group (LFLX group, n=6) and [5]1.0% Compound A instillation—0.3% LFLX instillation combination group (Compound A—LFLX combination group, n=6) as groups whose therapy was started 1 day after the inoculation (after onset of corneal ulcer), and 50 μl of each substance was given four times a day immediately after the inoculation or 1 day after the inoculation (after onset of corneal ulcer). […]
Each animal was examined for the corneal ulcer every 24 hours after the inoculation and scored in accordance with the rabbit corneal lesion scoring criteria (Barletta J. P. et al., Invest Ophthalmol Vis Sic 37:20-28, 1996) shown in Table 2. […]

[4] = instillation started 1 day after the inoculation (after onset of corneal ulcer), vs physiological saline (FIG. 9)

SMILES	effect on corneal opacity ([1]; 5 to 30 days after endotoxin infusion, 1.0% eye drop, 4 times a day, vs control group (FIG. 1))	effect on corneal ulcer ([1]; 5 to 30 days after endotoxin infusion, 1.0% eye drop, 4 times a day, vs control group (FIG. 2))	effect on vascularization ([1]; 5 to 30 days after endotoxin infusion, 1.0% eye drop, 4 times a day, vs control group (FIG. 3))	% inhibition of total keratitis score compared with the control group ([1]; 15th day after endotoxin infusion, 1.0% eye drop, 20 μl 4 times a day, statistically significant difference (FIG. 4)) [%]	effect on corneal opacity ([2]; 5 to 30 days after corneal alkaline exposure, 1.0% eye drop, 4 times a day (FIG. 5))	effect on vascularization ([2]; 5 to 30 days after corneal alkaline exposure, 1.0% eye drop, 4 times a day (FIG. 7))	effect on corneal ulcer ([2]; 20th day after corneal alkaline exposure, 1.0% eye drop, 4 times a day (FIG. 6))	corneal ulcer formation [3, 4]	corneal ulcer formation ([3]; instillation started immediately after the inoculation, vs physiological saline, statistically significant difference (FIG. 8))	onset of the keratitis ([1]; over the observation period (5 to 30 days), 0.1% eye drop, 4 times a day, positive control)	effect on vascularization ([2]; 15th day after corneal alkaline exposure, 0.1% eye drop, 4 times a day, positive control)
CC(C)(C)C(=O)Oc1ccc(S(=O)(=O)Nc2ccccc2C(=O)NCC(=O)[O-])cc1.O.O.O.O.[Na+] [Compound A, N-[o-(p-pivaloyloxybenzenesulfonyl-amino)benzoyl]glycine monosodium salt tetrahydrate]	inhibitory effects were observed	inhibitory effects were observed	inhibitory effects were observed	59.4	no effects were noted	no effects were noted	significant inhibitory effect	corneal ulcer formation was started to be inhibited 3 days after the inoculation	corneal ulcer formation was started to be inhibited 3 days after the inoculation		
C[C@H]1C[C@H]2[C@@H]3CCC4=CC(=O)C=C[C@]4(C)[C@@]3(F)[C@@H](O)C[C@]2(C)[C@@]1(O)C(=O)COP(=O)(O)O [betamethasone phosphate, reference compound]										inhibited almost completely	significant inhibitory effect
CCn1cc(C(=O)O)c(=O)c2cc(F)c(N3CCNC(C)C3)c(F)c21 (stereo not drawn) [LFLX, lomefloxacin (LFLX) hydrochloride, reference compound]								no inhibition of the corneal ulcer formation			

Source: patent US6624193B1, “Preventive and therapeutic agents for eye diseases” (Ono Pharmaceutical Co., Ltd., priority 1999, dated 2003)
